Source: patent US20220373538A1, “COMPOSITION FOR DETERMINATION OF CELL-MEDIATED IMMUNE RESPONSIVENESS” (Lophius Biosciences GmbH, priority 2015, published 2022)
Read-outs that look alike come from different tables or passages of the source.

Assays:
Type in all cases: cell-based, human
[1] = system: PBMC; assay: IFN-γ ELISpot assay, one-step detection; settings: for number of IFN-γ secreting cells detected / IFN-γ secreting cells after stimulation with the single stimulant (in words): single stimulant alone; for number of IFN-γ secreting cells detected: donor d270; for IFN-γ secreting cells after stimulation with the single stimulant (in words): collective of 10 donors, LPS 1 EU/ml
[2] = system: PBMC; assay: IFN-γ ELISpot assay, two-step detection; settings: for IL-12 concentration at which the number of IFN-γ secreting cells reached a maximum or plateau, IL-12 combined with the poly(I:C) variant: 10 μg/ml poly(I:C)-LMW, 1 μg/ml poly(I:C)-LMW/LyoVec, 1 μg/ml poly(I:C) (Enzo)
[3] = system: PBMC; assay: IFN-γ ELISpot assay (T-Track basic IFN-γ), PBMC of rheumatism patients; settings: patient P1, giant cell arthritis, 35 mg prednisolone equivalent daily; days 6 and 9
[4] = system: PBMC; assay: IFN-γ ELISA, temporal course of IFN-γ release; settings: for start of IFN-γ secretion after stimulation: working concentrations, 0 to 24 hours
Description: The detection of secreted IFN-γ was performed with the test kit “BD OptEIA Human IFN-γ ELISA Set” from Becton, Dickinson and Company according to the recommended assay performance in the technical data sheet.
To ensure that the activation of the IFN-γ production by the tested stimulants occurred in the typical stimulation period of 19 hours, the temporal course of the IFN-γ secretion induced by the stimulants was determined over a period of 24 hours. For this purpose, at each time point PBMC adjusted to 2×10^5 lymphocytes of different donors have been stimulated by the determined working concentrations of the stimulants poly(I:C) in combination with IL-12. KRN7000 and CEFTv for 0 to 24 hours.
In specifically stimulated cells the determination of the IFN-γ production was made to 11 time points in an interval of 2 or 4 hours. In unstimulated cells (negative control) three measurements in interval of 6 and 12 hours were made. Upon completion of each stimulation period the cells of the stimulation preparation were centrifuged and the supernatant stored at −20° C. After all stimulations were finished the IFN-γ concentration of the supernatants has been determined by IFN-γ ELISA as described in example 3.

[5] = donor d022, a-Gal-Cer variants titrated, 19 h

polyinosinic:polycytidylic acid [poly(I:C)]
number of IFN-γ secreting cells detected [1]: over 270 IFN-γ secreting cells

lipopolysaccharide [LPS]
own stimulating effect of LPS (in words) ([2]; LPS 1 EU/ml): no own detectable stimulating effect
stimulation ability of CEFTv on addition of LPS (in words) ([2]; summary of four donors): could not have been improved
effect of combination of LPS with CEFTv (in words) [1]: synergistic induction of IFN-γ secreting NK cells
stimulation ability of CEFTv on simultaneous administration of LPS (in words) ([1]; all three tested donors d204, d237, d254): did not result in an improvement
IFN-γ secreting cells after stimulation (in words) ([1]; donor d204 (CMV-/EBV-seropositive), CEFTv / LPS matrix): high numbers of IFN-γ secreting cells
LPS concentration at which stimulated PBMC reached a maximum ([1]; donor d219, LPS in combination with CEFTv): 1 EU/ml
IFN-γ secreting cells after stimulation (in words) ([1]; donor d237 (CMV-seronegative/EBV-seropositive), CEFTv / LPS matrix): high numbers of IFN-γ secreting cells
LPS concentration as from which IFN-γ secreting cells increased ([1]; donor d237, LPS in combination with CEFTv): 3.2 EU/ml
LPS concentration as from which LPS alone induced a low secretion of IFN-γ ([1]; donor d241): 10 EU/ml
LPS concentration as from which IFN-γ secreting cells increased ([1]; donor d241, LPS in combination with CEFTv): 3.2 EU/ml
LPS concentration as from which LPS alone induced a low secretion of IFN-γ ([1]; donor d254): 100 EU/ml
IFN-γ secreting cells after stimulation (in words) ([1]; donor d254 (CMV-/EBV-seropositive), CEFTv / LPS matrix): low numbers of IFN-γ secreting cells
threshold for LPS at which even no IFN-γ secreting cells have been detected ([1]; donors d204, d237, d254): 1 EU/ml
IFN-γ secreting cells after stimulation with the single stimulant (in words) [1]: barely detected
number of IFN-γ secreting cells detected [1]: high number of IFN-γ secreting cells

NC(N)=O [urea]
influence of urea on IFN-γ secreting cells induced by 1 μg p.p./ml CEFTv (in words) ([2]; donor d034): only improved by a 24 hours pre-incubation of CEFTv or directly added urea
influence of urea on IFN-γ secreting cells induced by 1 μg p.p./ml CEFTv (in words) ([2]; donor d204, CEFTv pre-incubated for 48 hours in urea buffer): deterioration of the stimulation at 100 mM and an improvement at 150 mM
urea concentration up to which the IFN-γ secreting cells increased ([2]; donor d204, CEFTv pre-incubated in urea buffer for 24 hours): 12.5 mM
influence of urea on IFN-γ secreting cells induced by 1 μg p.p./ml CEFTv (in words) ([2]; donor d204, without pre-incubation): no improvement
IFN-γ secreting cells after stimulation with the single stimulant (in words) [1]: did not result in a IFN-γ secretion

C[C@]12C=CC(=O)C=C1CC[C@@H]1[C@@H]2[C@@H](O)C[C@@]2(C)[C@H]1CC[C@]2(O)C(=O)CO [prednisolone]
course of cocktail-reactive IFN-γ producing cells under treatment (in words) [3]: continuous drop in the numbers of cocktail-reactive IFN-g-producing cells

polyinosinic:polycytidylic acid [poly(I:C) (from Enzo)]
IL-12 concentration at which the number of IFN-γ secreting cells reached a maximum or plateau, IL-12 combined with the poly(I:C) variant ([2]; donor d022): 0.01 µg/mL
IL-12 concentration at which the number of IFN-γ secreting cells reached a maximum or plateau, IL-12 combined with the poly(I:C) variant ([2]; donor d098): 0.001 µg/mL
IFN-γ secreting cells after stimulation (in words) ([2]; donor d098, poly(I:C) variants): without reaching a plateau
IL-12 concentration at which the number of IFN-γ secreting cells reached a maximum or plateau, IL-12 combined with the poly(I:C) variant ([2]; donor d248): 0.01 µg/mL
change of the number of IFN-γ secreting cells by IL-12 in combination with the poly(I:C) variant (in words) [1]: very low increase
concentration at which the number of IFN-γ secreting cells reached a maximum, plateau or saturation region [1]: around 0.3 μg/ml
IFN-γ secreting cells after stimulation (in words) ([1]; donor d042, […]): activation of IFN-γ secreting PBMC
number of IFN-γ secreting cells exceeding the plateau of poly(I:C)-LMW ([1]; donor d098, at highest concentration tested of 10 μg/ml): more than 100%
ranking of activation of IFN-γ secreting cells in culture of human PBMC ([1]; summary of one-step and two-step detection): highest activation of IFN-γ secreting cells

CCCCCCCCCCCCCCCCCCCCCCCCCC(=O)N[C@@H](CO[C@H]1O[C@H](CO)[C@H](O)[C@H](O)[C@H]1O)[C@H](O)[C@H](O)CCCCCCCCCCCCCC [KRN7000 (from Enzo)]
IFN-γ secreting cells after stimulation (in words) ([2]; donor d022, a-Gal-Cer variants): highest number
concentration at which the number of IFN-γ secreting cells reached a maximum, plateau or saturation region [1, 5]: 3 µg/mL

CCCCCCCCCCCCCCCCCCCCCCCCCC(=O)N[C@@H](CO[C@H]1O[C@H](CO)[C@H](O)[C@H](O)[C@H]1O)[C@H](O)[C@H](O)CCCCCCCCCCCCCC [KRN7000 (from Funakoshi)]
time at which IFN-γ secretion reached a plateau or maximum ([4]; donor d022): 12 h
start of IFN-γ secretion after stimulation ([4]; donor d022): 8 h
time at which IFN-γ secretion reached a plateau or maximum ([4]; donor d248): 18 h
start of IFN-γ secretion after stimulation ([4]; donor d248): 2 h
IFN-γ release in PBMC, comparison of stimulants (in words) ([4]; summary of donors): weakest IFN-γ activating properties
IFN-γ secreting cells after stimulation (in words) ([2]; donor d242, a-Gal-Cer variants): highest number of IFN-γ secreting cells
concentration at which the number of IFN-γ secreting cells reached a maximum, plateau or saturation region [1, 5]: 1 µg/mL
more IFN-γ secreting cells activated compared with KRN7000 (from Enzo) ([1]; donor d248, saturation region): 100%
